In the supplement of paper PMC6045584:
± gives the standard deviation of the averaged measurements.

Key:
[1] = compound: COc1cc2ncnc(Nc3ccc(F)c(Cl)c3)c2cc1NC(=O)/C=C/CN1CCCCC1; assay: surviving fraction relative to DMSO-only wells; higher = less growth inhibition; conditions: exposure time: 5 days
Procedure, shortened: (§1)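 Log-phase tumour cells were seeded at 250–500 per well in 384-well plates and, from 24 hours after seeding, exposed continuously for five days to inhibitors at 0.5, 1, 5, 10, 50, 100, 500 and 1000 nM. Surviving fraction is CellTiter-Glo luminescence normalised to the median of DMSO-only wells. Luminescence was measured after 10 minutes at room temperature, and only lines screened three times with replicate Pearson r >0.7 and median Z' >0.3 were kept.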

[2] = compound: C[C@@H](Oc1cc(-c2cnn(C3CCNCC3)c2)cnc1N)c1c(Cl)ccc(F)c1Cl; assay: as above; conditions: exposure time: 5 days
Procedure, shortened: as §1

Row | Test System | surviving fraction ([1]; 0.5 nM) | surviving fraction ([1]; 1 nM) | surviving fraction ([1]; 5 nM) | surviving fraction ([1]; 10 nM) | surviving fraction ([1]; 50 nM) | surviving fraction ([1]; 100 nM) | surviving fraction ([1]; 500 nM) | surviving fraction ([1]; 1000 nM) | surviving fraction ([2]; 0.5 nM) | surviving fraction ([2]; 1 nM) | surviving fraction ([2]; 5 nM) | surviving fraction ([2]; 50 nM) | surviving fraction ([2]; 100 nM) | surviving fraction ([2]; 500 nM) | surviving fraction ([2]; 1000 nM) | surviving fraction ([2]; 10 nM)
1 | G292 BONE | 1.03 ± 0.021 | 0.979 ± 0.054 | 1.05 ± 0.031 | 1.02 ± 0.03 | 0.981 ± 0.052 | 0.9292 ± 0.0084 | 0.693 ± 0.029 | 0.424 ± 0.013 | 0.961 ± 0.025 | 0.971 ± 0.032 | 0.931 ± 0.088 | 0.948 ± 0.038 | 0.871 ± 0.011 | 0.564 ± 0.031 | 0.38 ± 0.01 | –
2 | HCC38 BREAST | 1.02 ± 0.082 | 1.21 ± 0.21 | 1.16 ± 0.044 | 1.22 ± 0.26 | 0.954 ± 0.26 | 1.07 ± 0.046 | 0.863 ± 0.099 | 0.716 ± 0.06 | 0.862 ± 0.14 | – | 0.928 ± 0.18 | 1.09 ± 0.22 | 1.13 ± 0.23 | – | 0.66 ± 0.14 | 0.928 ± 0.16
3 | HCC70 BREAST | 1.11 ± 0.059 | 1.06 ± 0.11 | 0.926 ± 0.074 | 0.957 ± 0.11 | 0.956 ± 0.11 | 0.975 ± 0.049 | 0.897 ± 0.091 | 0.842 ± 0.031 | – | 0.95 ± 0.095 | – | – | 1.14 ± 0.12 | 0.964 ± 0.04 | 0.736 ± 0.034 | –
4 | HMLE3 BREAST | 0.953 ± 0.036 | 0.934 ± 0.063 | 0.917 ± 0.084 | 0.953 ± 0.065 | 0.921 ± 0.069 | 0.932 ± 0.052 | 0.793 ± 0.076 | 0.679 ± 0.035 | 0.873 ± 0.031 | 0.829 ± 0.028 | – | 0.941 ± 0.063 | 0.843 ± 0.019 | 0.599 ± 0.051 | 0.38 ± 0.011 | –
5 | HMT3552 BREAST | 0.902 | 0.831 | 0.845 | 0.802 | 0.827 | 0.792 | 0.65 | 0.302 | – | – | – | 1.17 | – | 0.393 | 0.211 | –
6 | HS57T BREAST | 0.945 ± 0.064 | 1.02 ± 0.076 | 1.07 ± 0.024 | 1.04 ± 0.038 | 1.04 ± 0.032 | 1.04 ± 0.05 | 0.86 ± 0.064 | 0.318 ± 0.026 | 0.904 ± 0.058 | – | – | 0.971 ± 0.04 | 0.926 ± 0.06 | 0.568 ± 0.016 | 0.492 ± 0.021 | 0.98 ± 0.027
7 | HS578T BREAST | 1.07 ± 0.1 | 1.15 ± 0.14 | 1.03 ± 0.12 | 0.956 ± 0.17 | 0.985 ± 0.2 | 1.09 ± 0.1 | 0.688 ± 0.19 | 0.412 ± 0.091 | – | 0.827 ± 0.12 | 0.845 ± 0.063 | 0.936 ± 0.1 | 0.85 ± 0.1 | 0.552 ± 0.13 | 0.563 ± 0.11 | 0.959 ± 0.16
